Data as given in patent publication US20160159789A1, “SUBSTITUTED PYRAZOLOPYRIDINES” (BAYER PHARMA AKTIENGESELLSCHAFT, priority 2013, published 2016).

Molecular target: T1, human full-length MKNK1 (Homo sapiens, UniProt Q9BUB5, T385D)
T1 construct: purchased Carna Biosciences 02-145; host or cells: insect cells (baculovirus expression system)
Assay: MKNK1 kinase high ATP assay (TR-FRET)
Type: biochemical
Settings: high ATP (2 mM final), 15 min preincubation with enzyme, GST-MKNK1 (T344D)
Procedure, shortened: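 GST-tagged full-length human MKNK1 from insect cells, preincubated 15 min with compound at 22° C in HEPES pH 7.5/MgCl2/DTT buffer, then reacted 30 min with 2 mM ATP and 0.06 μM biotinylated peptide (final). Phosphopeptide detected by TR-FRET (anti-pS6 pSer236/Eu-ProteinG, streptavidin-XL665), 665/620 ratio normalised to no-enzyme and no-inhibitor controls.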

T1 sequence (Q9BUB5 1-424 isoform Q9BUB5-2 T344D): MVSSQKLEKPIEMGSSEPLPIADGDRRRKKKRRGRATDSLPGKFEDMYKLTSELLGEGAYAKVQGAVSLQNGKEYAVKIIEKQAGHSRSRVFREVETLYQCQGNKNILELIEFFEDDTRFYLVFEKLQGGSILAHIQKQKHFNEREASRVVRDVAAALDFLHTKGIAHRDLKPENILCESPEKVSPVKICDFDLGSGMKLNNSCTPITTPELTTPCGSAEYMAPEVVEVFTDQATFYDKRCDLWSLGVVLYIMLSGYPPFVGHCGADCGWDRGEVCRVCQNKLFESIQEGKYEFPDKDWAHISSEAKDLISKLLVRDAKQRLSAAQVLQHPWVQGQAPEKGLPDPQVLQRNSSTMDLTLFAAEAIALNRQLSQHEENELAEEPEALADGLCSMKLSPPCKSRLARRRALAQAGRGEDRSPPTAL

| SMILES | IC50 [nM] |
| --- | --- |
| CC(C)N(C)C(=O)[C@H]1CCc2c(sc3ncnc(Nc4cc5cn[nH]c5nc4O)c23)C1 [Example 114, (7S)-4-[(6-Hydroxy-1H-pyrazolo[3,4-b]pyridin-5-yl)amino]-N-methyl-N-(propan-2-yl)-5,6,7,8-tetrahydro[1]benzothieno[2,3-d]pyrimidine-7-carboxamide] | 4.6 |
| O=C([C@H]1CCc2c(sc3ncnc(Nc4cc5cn[nH]c5nc4O)c23)C1)N1C[C@@H]2C[C@H]1CO2 [Example 115] | 6.9 |
| CN1CCN(C(=O)[C@H]2CCc3c(sc4ncnc(Nc5cc6cn[nH]c6nc5O)c34)C2)CC1 [Example 116] | 2.1 |
| CN(C)C1CCN(C(=O)[C@H]2CCc3c(sc4ncnc(Nc5cc6cn[nH]c6nc5O)c34)C2)CC1 [Example 117, [4-(Dimethylamino)piperidin-1-yl]{(7S)-4-[(6-hydroxy-1H-pyrazolo[3,4-b]pyridin-5-yl)amino]-5,6,7,8-tetrahydro[1]benzothieno[2,3-d]pyrimidin-7-yl}methanone] | 1.4 |
| CN(C)CCCNC(=O)c1[nH]c2ncnc(Nc3cc4cn[nH]c4cn3)c2c1Br [Example 118, 5-Bromo-N-[3-(dimethylamino)propyl]-4-(1H-pyrazolo[3,4-c]pyridin-5-ylamino)-7H-pyrrolo[2,3-d]pyrimidine-6-carboxamide] | 8.1 |
| CN(C)CCCN(C)C(=O)c1[nH]c2ncnc(Nc3cc4cn[nH]c4cn3)c2c1Br [Example 119, 5-Bromo-N-[3-(dimethylamino)propyl]-N-methyl-4-(1H-pyrazolo[3,4-c]pyridin-5-ylamino)-7H-pyrrolo[2,3-d]pyrimidine-6-carboxamide] | 67.7 |
| CN(C)CCNC(=O)c1[nH]c2ncnc(Nc3cc4cn[nH]c4cn3)c2c1Br [Example 120, 5-Bromo-N-[2-(dimethylamino)ethyl]-4-(1H-pyrazolo[3,4-c]pyridin-5-ylamino)-7H-pyrrolo[2,3-d]pyrimidine-6-carboxamide] | 14.5 |
| C[C@H]1COCCN1C(=O)c1[nH]c2ncnc(Nc3cc4cn[nH]c4cn3)c2c1Br [Example 121, [5-Bromo-4-(1H-pyrazolo[3,4-c]pyridin-5-ylamino)-7H-pyrrolo[2,3-d]pyrimidin-6-yl][(3S)-3-methylmorpholin-4-yl]methanone] | 30.1 |
| CN(C)C(=O)c1nc2c(Nc3cnc4[nH]ncc4c3)ncnc2s1 [Example 123, N,N-Dimethyl-7-(1H-pyrazolo[3,4-b]pyridin-5-ylamino)[1,3]thiazolo[5,4-d]pyrimidine-2-carboxamide] | 230 |
| CN(C)CCNC(=O)c1[nH]c2ncnc(Nc3cnc4[nH]ncc4c3)c2c1Br [Example 124, 5-Bromo-N-[2-(dimethylamino)ethyl]-4-(1H-pyrazolo[3,4-b]pyridin-5-ylamino)-7H-pyrrolo[2,3-d]pyrimidine-6-carboxamide] | 65.9 |
| CN(C)CCCNC(=O)c1[nH]c2ncnc(Nc3cnc4[nH]ncc4c3)c2c1Br [Example 125, 5-Bromo-N-[3-(dimethylamino)propyl]-4-(1H-pyrazolo[3,4-b]pyridin-5-ylamino)-7H-pyrrolo[2,3-d]pyrimidine-6-carboxamide] | 29.2 |
| O=C(c1nc2c(Nc3cnc4[nH]ncc4c3)ncnc2s1)N1CCCCC1 [Example 126, Piperidin-1-yl[7-(1H-pyrazolo[3,4-b]pyridin-5-ylamino)[1,3]thiazolo[5,4-d]pyrimidin-2-yl]methanone] | 171 |
| CN(C)C1CCN(C(=O)c2[nH]c3ncnc(Nc4cnc5[nH]ncc5c4)c3c2Br)CC1 [Example 127, [5-Bromo-4-(1H-pyrazolo[3,4-b]pyridin-5-ylamino)-7H-pyrrolo[2,3-d]pyrimidin-6-yl][4-(dimethylamino)piperidin-1-yl]methanone] | 76.8 |
| CN(C)C(=O)CCN(C)C(=O)c1nc2c(Nc3cnc4[nH]ncc4c3)ncnc2s1 [Example 129, N-[3-(Dimethylamino)-3-oxopropyl]-N-methyl-7-(1H-pyrazolo[3,4-b]pyridin-5-ylamino)[1,3]thiazolo[5,4-d]pyrimidine-2-carboxamide] | 4290 |
| COc1nc2[nH]ncc2cc1Nc1ncnc2sc(C(=O)N(C)CC(=O)N(C)C)nc12 [Example 130, N-[2-(Dimethylamino)-2-oxoethyl]-7-[(6-methoxy-1H-pyrazolo[3,4-b]pyridin-5-yl)amino]-N-methyl[1,3]thiazolo[5,4-d]pyrimidine-2-carboxamide] | 212 |
| COc1nc2[nH]ncc2cc1Nc1ncnc2[nH]c(C(=O)N(C)CCCN(C)C)c(Br)c12 [Example 131, 5-Bromo-N-[3-(dimethylamino)propyl]-4-[(6-methoxy-1H-pyrazolo[3,4-b]pyridin-5-yl)amino]-N-methyl-7H-pyrrolo[2,3-d]pyrimidine-6-carboxamide] | 6.7 |
| CN(C)CCCN(C)C(=O)c1[nH]c2ncnc(Nc3cc4cn[nH]c4nc3O)c2c1Br [Example 132, 5-Bromo-N-[3-(dimethylamino)propyl]-4-[(6-hydroxy-1H-pyrazolo[3,4-b]pyridin-5-yl)amino]-N-methyl-7H-pyrrolo[2,3-d]pyrimidine-6-carboxamide] | 23.4 |
| COc1nc2[nH]ncc2cc1Nc1ncnc2sc(C(=O)N3CCCCC3)nc12 [Example 133, {7-[(6-Methoxy-1H-pyrazolo[3,4-b]pyridin-5-yl)amino][1,3]thiazolo[5,4-d]pyrimidin-2-yl}(piperidin-1-yl)methanone] | 150 |
| O=C(c1[nH]c2ncnc(Nc3cc4cn[nH]c4nc3O)c2c1Br)N1CCCCC1 [Example 134] | 10.8 |
| COc1nc2[nH]ncc2cc1Nc1ncnc2[nH]c(C(=O)N3CCOC[C@@H]3C)c(Br)c12 [Example 135] | 7.3 |
| COc1nc2[nH]ncc2cc1Nc1ncnc2sc3c(c12)CC[C@H](C(=O)N(C)CCC(F)(F)F)C3 [Example 136, (7S)-4-[(6-Methoxy-1H-pyrazolo[3,4-b]pyridin-5-yl)amino]-N-methyl-N-(3,3,3-trifluoropropyl)-5,6,7,8-tetrahydro[1]benzothieno[2,3-d]pyrimidine-7-carboxamide] | 0.5 |
| CN(C)C(=O)CCN(C)C(=O)c1nc2c(Nc3cc4cn[nH]c4cn3)ncnc2s1 [Example 137, N-[3-(Dimethylamino)-3-oxopropyl]-N-methyl-7-(1H-pyrazolo[3,4-c]pyridin-5-ylamino)[1,3]thiazolo[5,4-d]pyrimidine-2-carboxamide] | 203 |
| COc1nc2[nH]ncc2cc1Nc1ncnc2sc(C(=O)N(C)CCC(=O)N(C)C)nc12 [Example 138, N-[3-(Dimethylamino)-3-oxopropyl]-7-[(6-methoxy-1H-pyrazolo[3,4-b]pyridin-5-yl)amino]-N-methyl[1,3]thiazolo[5,4-d]pyrimidine-2-carboxamide] | 114 |
| CN(CCC(F)(F)F)C(=O)[C@H]1CCc2c(sc3ncnc(Nc4cc5cn[nH]c5nc4O)c23)C1 [Example 139, (7S)-4-[(6-Hydroxy-1H-pyrazolo[3,4-b]pyridin-5-yl)amino]-N-methyl-N-(3,3,3-trifluoropropyl)-5,6,7,8-tetrahydro[1]benzothieno[2,3-d]pyrimidine-7-carboxamide] | 4.7 |
| CN(C)C1CN(C(=O)[C@H]2CCc3c(sc4ncnc(Nc5cc6cn[nH]c6cn5)c34)C2)C1 [Example 140, 10 [3-(Dimethylamino)azetidin-1-yl][(7S)-4-(1H-pyrazolo[3,4-c]pyridin-5-ylamino)-5,6,7,8-tetrahydro[1]benzothieno[2,3-d]pyrimidin-7-yl]methanone] | 2.4 |
| COc1nc2[nH]ncc2cc1Nc1ncnc2sc3c(c12)CC[C@H](C(=O)N1CC(N(C)C)C1)C3 [Example 141, [3-(Dimethylamino)azetidin-1-yl]{(7S)-4-[(6-methoxy-1H-pyrazolo[3,4-b]pyridin-5-yl)amino]-5,6,7,8-tetrahydro[1]benzothieno[2,3-d]pyrimidin-7-yl}methanone] | 1.2 |
| CN(C)C1CN(C(=O)[C@H]2CCc3c(sc4ncnc(Nc5cnc6[nH]ncc6c5)c34)C2)C1 [Example 142, [3-(Dimethylamino)azetidin-1-yl][(7S)-4-(1H-pyrazolo[3,4-b]pyridin-5-ylamino)-5,6,7,8-tetrahydro[1]benzothieno[2,3-d]pyrimidin-7-yl]methanone] | 11.8 |
